Test [1] addresses CDK7/Cyclin H/MAT1 complex (Homo sapiens, UniProt P50613). Kind of test: CDK7 inhibition assay (Caliper/LabChip EZ Reader kinase assay). It is filed as biochemical. The note with it: Table 1; CDK7/Cyclin H/MAT1 6 nM, ATP 2 mM, 35 min at 27° C. An outline of the steps:
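A Perkin Elmer Caliper/LabChip EZ Reader (Waltham, MA) platform served as the basis for this CDK7 kinase inhibition assay. The work was carried out by Biortus Biosciences, located in Jiangyin, Jiangsu Province, P.R. of China. Each CDK studied had its own kinase assay, and compounds were evaluated for their ability to block CDK7 activity.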

Test [2] has as its target CDK9/Cyclin T1 complex (Homo sapiens, UniProt P50750). Put plainly: CDK9 inhibition assay (Caliper/LabChip EZ Reader kinase assay). The note with it: Table 1; CDK9/Cyclin T1 8 nM, ATP 2 mM, 15 min at 27° C. It is filed as biochemical. An outline of the steps:
(§1)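 Activity read as fluorescent peptide conversion on a LabChip EZ Reader. For CDK2/Cyclin E1 (0.5 nM), substrate was 5-FAM-CDK7tide (2 μM) with 2 mM MgCl2; for CDK9/Cyclin T1 (8 nM), 5-FAM-CDK9tide (2 μM) with 10 mM MgCl2.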

For test [3], the system named is A673 cells. Put plainly: Inhibition of proliferation of A673 cells (CyQUANT, 72 hour). Format: cell-based, human. The settings on record: A673 cells, 72 hour, CyQUANT, read-out: Inhibition of Proliferation of A673 Cells (calculated IC50). An outline of the steps:
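Proliferation read-out by CyQUANT after a 72 h exposure, compounds spanning 4 μM–[…] in half-log steps. A673 cells cultured at 37° C under 5% CO2 in DMEM supplemented with 10% FBS plus 1 mM sodium pyruvate.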

In test [4] the test system is HCC70 cells. Put plainly: Inhibition of proliferation of HCC70 cells (CyQUANT Direct Cell Proliferation Assay, 72 hour). Format: cell-based, human. The settings on record: read-out: Inhibition of Proliferation of HCC70 Cells (calculated IC50). The essentials: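 Human triple-negative breast cancer HCC70 cells cultured at 37° C, 5% CO2, with compound for 72 hour. Anti-proliferative effect read by CyQUANT Direct Cell Proliferation Assay. Dinaciclib, a CDK inhibitor analog and triptolide served as positive controls.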

Test [5] has as its target T1, CDK12 (aa686-1082)/Cyclin K complex (Homo sapiens, UniProt Q9NYV4).
T1 construct: CDK12 (aa686-1082)/Cyclin K complex
Kind of test: CDK12 inhibition assay (Caliper/LabChip EZ Reader kinase assay). It is filed as biochemical. The note with it: Table 1; CDK12 (aa686-1082)/Cyclin K 50 nM, ATP 2 mM, 3 hr at 27° C.

The target in test [6] is CDK2/Cyclin E1 complex (Homo sapiens, UniProt P24941). Put plainly: CDK2 inhibition assay (Caliper/LabChip EZ Reader kinase assay). Format: biochemical. The settings on record: Table 1; CDK2/Cyclin E1 0.5 nM, ATP 2 mM, 35 min at 27° C. The essentials:
as §1

Where two headings read alike, the source gives them in different places. Bounds are passed on as bounds.

Sequence of CDK9/Cyclin T1 complex (P50750 whole entry, species assumed): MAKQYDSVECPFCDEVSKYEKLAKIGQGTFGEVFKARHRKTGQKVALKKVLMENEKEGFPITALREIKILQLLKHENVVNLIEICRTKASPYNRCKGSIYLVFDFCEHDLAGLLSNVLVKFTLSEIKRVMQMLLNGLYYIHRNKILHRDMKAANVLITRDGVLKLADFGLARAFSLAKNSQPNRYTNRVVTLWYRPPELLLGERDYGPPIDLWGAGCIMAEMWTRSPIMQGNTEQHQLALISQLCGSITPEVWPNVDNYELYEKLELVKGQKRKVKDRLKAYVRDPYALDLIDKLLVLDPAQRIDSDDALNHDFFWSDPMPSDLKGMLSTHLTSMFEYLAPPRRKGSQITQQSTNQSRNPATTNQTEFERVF
Sequence of CDK9/Cyclin T1 complex (O60563 whole entry partner, species assumed): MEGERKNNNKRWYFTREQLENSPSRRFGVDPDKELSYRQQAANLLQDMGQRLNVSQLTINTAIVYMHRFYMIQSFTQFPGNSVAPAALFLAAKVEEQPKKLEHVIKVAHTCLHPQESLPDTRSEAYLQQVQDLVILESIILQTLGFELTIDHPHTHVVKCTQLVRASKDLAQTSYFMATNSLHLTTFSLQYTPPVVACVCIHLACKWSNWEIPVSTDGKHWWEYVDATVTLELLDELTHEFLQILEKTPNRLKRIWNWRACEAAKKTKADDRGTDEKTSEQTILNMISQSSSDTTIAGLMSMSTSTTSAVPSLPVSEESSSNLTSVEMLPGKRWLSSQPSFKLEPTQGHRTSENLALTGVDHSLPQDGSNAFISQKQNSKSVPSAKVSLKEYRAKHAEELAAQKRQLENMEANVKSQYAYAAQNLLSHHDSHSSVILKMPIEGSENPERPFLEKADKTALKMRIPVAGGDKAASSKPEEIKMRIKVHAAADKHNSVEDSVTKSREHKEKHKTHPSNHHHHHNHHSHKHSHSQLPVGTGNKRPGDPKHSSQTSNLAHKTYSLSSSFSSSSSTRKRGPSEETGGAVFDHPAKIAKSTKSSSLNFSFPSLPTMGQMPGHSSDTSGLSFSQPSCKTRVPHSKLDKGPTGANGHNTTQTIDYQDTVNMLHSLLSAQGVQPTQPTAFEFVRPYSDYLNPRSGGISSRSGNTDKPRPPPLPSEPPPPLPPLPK
Sequence of CDK7/Cyclin H/MAT1 complex (P50613 whole entry, species assumed): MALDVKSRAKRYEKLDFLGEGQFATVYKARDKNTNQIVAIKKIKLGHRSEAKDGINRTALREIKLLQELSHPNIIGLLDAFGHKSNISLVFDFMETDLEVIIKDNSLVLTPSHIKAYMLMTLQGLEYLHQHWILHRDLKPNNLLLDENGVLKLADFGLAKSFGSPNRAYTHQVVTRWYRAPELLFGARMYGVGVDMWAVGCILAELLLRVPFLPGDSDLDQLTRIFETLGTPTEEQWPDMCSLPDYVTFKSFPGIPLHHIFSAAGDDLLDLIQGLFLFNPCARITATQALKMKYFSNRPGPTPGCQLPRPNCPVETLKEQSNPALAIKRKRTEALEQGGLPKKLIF
Sequence of CDK7/Cyclin H/MAT1 complex (P51946 whole entry partner, species assumed): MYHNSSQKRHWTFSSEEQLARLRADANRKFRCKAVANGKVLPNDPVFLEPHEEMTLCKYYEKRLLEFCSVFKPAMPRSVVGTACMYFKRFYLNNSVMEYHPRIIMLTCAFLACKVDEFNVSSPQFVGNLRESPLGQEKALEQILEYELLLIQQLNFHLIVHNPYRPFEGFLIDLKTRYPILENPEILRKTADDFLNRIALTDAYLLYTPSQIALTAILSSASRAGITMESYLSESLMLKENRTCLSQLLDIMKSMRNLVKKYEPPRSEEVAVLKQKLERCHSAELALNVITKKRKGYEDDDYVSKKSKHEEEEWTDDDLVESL
Sequence of CDK7/Cyclin H/MAT1 complex (P51948 whole entry partner, species assumed): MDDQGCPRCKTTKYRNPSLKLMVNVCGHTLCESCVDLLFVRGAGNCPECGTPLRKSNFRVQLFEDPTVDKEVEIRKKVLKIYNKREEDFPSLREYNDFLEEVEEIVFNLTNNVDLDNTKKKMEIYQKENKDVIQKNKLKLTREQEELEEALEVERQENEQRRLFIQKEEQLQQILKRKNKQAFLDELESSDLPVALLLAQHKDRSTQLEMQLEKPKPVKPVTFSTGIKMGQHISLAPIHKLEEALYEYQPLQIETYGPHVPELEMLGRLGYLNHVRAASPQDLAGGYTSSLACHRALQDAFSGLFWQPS
T1 sequence (Q9NYV4 686-1082, species assumed): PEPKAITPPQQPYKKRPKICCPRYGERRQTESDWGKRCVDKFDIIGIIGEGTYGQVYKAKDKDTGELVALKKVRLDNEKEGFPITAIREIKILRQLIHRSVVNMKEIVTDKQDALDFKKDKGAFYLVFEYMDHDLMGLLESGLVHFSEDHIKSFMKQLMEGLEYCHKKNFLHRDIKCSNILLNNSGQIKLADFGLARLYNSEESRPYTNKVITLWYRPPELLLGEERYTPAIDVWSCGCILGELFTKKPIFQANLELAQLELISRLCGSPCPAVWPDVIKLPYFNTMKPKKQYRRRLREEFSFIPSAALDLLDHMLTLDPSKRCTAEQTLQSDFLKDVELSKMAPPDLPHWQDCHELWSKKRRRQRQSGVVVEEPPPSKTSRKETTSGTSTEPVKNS
T1 sequence (O75909 whole entry partner, species assumed, the tested form may be a part): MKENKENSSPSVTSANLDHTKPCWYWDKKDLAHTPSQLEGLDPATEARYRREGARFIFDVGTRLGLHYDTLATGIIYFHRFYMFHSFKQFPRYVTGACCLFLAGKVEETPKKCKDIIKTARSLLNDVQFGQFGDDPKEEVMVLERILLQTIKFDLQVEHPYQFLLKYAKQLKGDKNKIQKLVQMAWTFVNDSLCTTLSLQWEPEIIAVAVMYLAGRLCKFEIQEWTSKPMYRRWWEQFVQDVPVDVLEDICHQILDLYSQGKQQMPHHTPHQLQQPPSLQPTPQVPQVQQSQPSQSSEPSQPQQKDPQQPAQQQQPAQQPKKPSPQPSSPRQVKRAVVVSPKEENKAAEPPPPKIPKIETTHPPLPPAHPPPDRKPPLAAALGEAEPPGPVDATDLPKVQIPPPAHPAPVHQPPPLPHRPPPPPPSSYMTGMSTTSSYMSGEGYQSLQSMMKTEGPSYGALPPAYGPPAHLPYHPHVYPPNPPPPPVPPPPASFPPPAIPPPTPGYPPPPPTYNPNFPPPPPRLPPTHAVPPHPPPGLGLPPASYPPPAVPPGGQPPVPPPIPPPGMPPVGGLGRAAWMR

With `O=C1CC[C@H](Nc2ncc(Cl)c(-c3c[nH]c4ccccc34)n2)CN1` [Compound 159], the IC50 in test [1] is 20 to 200 nM; in test [2] it was 200 to 5000 nM; in test [3] (Homo sapiens, A673, 72 h), 200 to 5000 nM; in test [4] (Homo sapiens, HCC70, 72 h) it was 1000 to 5000 nM; in test [5], 200 to 5000 nM; in test [6], 20 to 200 nM.

In the case of `FC(F)(F)c1cnc(N[C@H]2CCCNC2)nc1-c1c[nH]c2c(-c3cn[nH]c3)cccc12` [Compound 170], the IC50 in test [1] is less than 20 nM; in test [2], 200 to 5000 nM; in test [3] (Homo sapiens, A673, 72 h), less than 20 nM; in test [4] (Homo sapiens, HCC70, 72 h) it was less than 100 nM; in test [5], 20 to 200 nM; in test [6], 200 to 5000 nM.

`CN1CCN(c2cccc3c(-c4nc(N[C@H]5CCCNC5)ncc4C(F)(F)F)c[nH]c23)C1=O` [Compound 176]: the IC50 in test [1] is less than 20 nM; in test [2] it was 200 to 5000 nM; in test [3] (Homo sapiens, A673, 72 h) it was less than 20 nM; in test [4] (Homo sapiens, HCC70, 72 h), 100 to 1000 nM; in test [5], 200 to 5000 nM; in test [6] it was 200 to 5000 nM.

On to `FC(F)(F)c1cnc(N[C@H]2CCCNC2)nc1-c1c[nH]c2c(-c3ccnnc3)cccc12` [Compound 180], for which the IC50 is less than 20 nM in test [1]; 200 to 5000 nM in test [2]; less than 20 nM in test [3] (Homo sapiens, A673, 72 h); less than 100 nM in test [4] (Homo sapiens, HCC70, 72 h); 20 to 200 nM in test [5]; 20 to 200 nM in test [6].

For `OC1CCC(c2cccc3c(-c4nc(N[C@H]5CCCNC5)ncc4C(F)(F)F)c[nH]c23)CC1` (stereo partly drawn) [Compound 185], the IC50 was less than 20 nM in test [1]; 200 to 5000 nM in test [2]; less than 20 nM in test [3]; less than 100 nM in test [4]; 200 to 5000 nM in test [5]; 20 to 200 nM in test [6].

`CC1(C)CC[C@H](Nc2ncc(C(F)(F)F)c(-c3c[nH]c4ccccc34)n2)CN1` [Compound 190]: the IC50 in test [1] was less than 20 nM; in test [2] it was 200 to 5000 nM; in test [3] (Homo sapiens, A673, 72 h), less than 20 nM; in test [4] (Homo sapiens, HCC70, 72 h), 100 to 1000 nM; in test [5] it was 200 to 5000 nM; in test [6], 200 to 5000 nM.

With `CS(=O)(=O)c1ccc2c(-c3nc(N[C@H]4CCCNC4)ncc3C(F)(F)F)c[nH]c2c1` [Compound 199, 4-(6-methylsulfonyl-1H-indol-3-yl)-N-[(3S)-3-piperidyl]-5-(trifluoromethyl) pyrimidin-2-amine], the IC50 in test [1] was less than 20 nM; in test [2], 200 to 5000 nM; in test [3] (Homo sapiens, A673, 72 h), less than 20 nM; in test [4] (Homo sapiens, HCC70, 72 h), 100 to 1000 nM; in test [5], 200 to 5000 nM; in test [6], 200 to 5000 nM.

For the molecule `CS(=O)(=O)c1c(C#N)ccc2c(-c3nc(N[C@H]4CCCNC4)ncc3C(F)(F)F)c[nH]c12` [Compound 232, 7-methylsulfonyl-3-[2-[[(3S)-3-piperidyl]amino]-5-(trifluoromethyl)pyrimidin-4-yl]-1H-indole-6-carbonitrile], the IC50 is less than 20 nM in test [1]; 200 to 5000 nM in test [2]; less than 20 nM in test [3] (Homo sapiens, A673, 72 h); less than 100 nM in test [4] (Homo sapiens, HCC70, 72 h); 200 to 5000 nM in test [5]; 200 to 5000 nM in test [6].

On to `CCc1cnc(N[C@H]2CCCNC2)nc1-c1c[nH]c2cc(C#N)ccc12` [Compound 246], for which the IC50 was less than 20 nM in test [1]; more than 5000 nM in test [2]; 200 to 5000 nM in test [3]; 100 to 1000 nM in test [4]; more than 5000 nM in test [5]; more than 5000 nM in test [6].

As to `N#Cc1ccc2c(-c3nc(N[C@H]4CCCNC4)ncc3C(F)(F)F)c[nH]c2n1` [Compound 251, 3-[2-[[(3S)-3-piperidyl]amino]-5-(trifluoromethyl)pyrimidin-4-yl]-1H-pyrrolo [2,3-b] pyridine-6-carbonitrile], the IC50 in test [1] was less than 20 nM; in test [2] it was 200 to 5000 nM; in test [3] (Homo sapiens, A673, 72 h) it was less than 20 nM; in test [4] (Homo sapiens, HCC70, 72 h), less than 100 nM; in test [5], 200 to 5000 nM; in test [6], 200 to 5000 nM.

Turning to `N#Cc1ccc2c(-c3nc(N[C@H]4CCCNC4)ncc3C(F)(F)F)c[nH]c2c1-c1ccnnc1` [Compound 261, 3-[2-[[(3S)-3-piperidyl]amino]-5-(trifluoromethyl)pyrimidin-4-yl]-7-pyridazin-4-yl-1H-indole-6-carbonitrile], the IC50 in test [1] was 20 to 200 nM; in test [2], 200 to 5000 nM; in test [3] (Homo sapiens, A673, 72 h), less than 20 nM; in test [4] (Homo sapiens, HCC70, 72 h), less than 100 nM; in test [5] it was 200 to 5000 nM; in test [6], 200 to 5000 nM.

For `CCc1cnc(N[C@H]2CCCNC2)nc1-c1c[nH]c2c(S(C)(=O)=O)c(C#N)ccc12` [Compound 263, 3-[5-ethyl-2-[[(3S)-3-piperidyl]amino]pyrimidin-4-yl]-7-methylsulfonyl-1H-indole-6-carbonitrile], the IC50 in test [1] was less than 20 nM; in test [2] it was more than 5000 nM; in test [3] (Homo sapiens, A673, 72 h), 20 to 200 nM; in test [4] (Homo sapiens, HCC70, 72 h) it was 100 to 1000 nM; in test [5], more than 5000 nM; in test [6] it was more than 5000 nM.

Consider `C=CC(=O)N1CCC(CO[C@H]2CNC[C@@H](Nc3ncc(C(F)(F)F)c(-c4c[nH]c5c(S(C)(=O)=O)cccc45)n3)C2)CC1` [Compound 264], for which the IC50 in test [1] was 20 to 200 nM; in test [2] it was more than 5000 nM; in test [3] (Homo sapiens, A673, 72 h) it was less than 20 nM; in test [4] (Homo sapiens, HCC70, 72 h), 100 to 1000 nM; in test [5], 200 to 5000 nM; in test [6], more than 5000 nM.

For the molecule `FC(F)(F)c1cnc(N[C@@H]2CNC[C@H](c3nnc4ccccn34)C2)nc1-c1c[nH]c2ccccc12` [Compound 267], the IC50 is 20 to 200 nM in test [1]; 200 to 5000 nM in test [2]; less than 20 nM in test [3]; less than 100 nM in test [4]; 200 to 5000 nM in test [5]; 200 to 5000 nM in test [6].

Turning to `Cn1cc(-c2nc(NC3CCCNC3)ncc2C(F)(F)F)c2ccc(C#N)nc21` (stereo not drawn) [Compound 273], the IC50 in test [1] is 200 to 5000 nM; in test [2], more than 5000 nM; in test [3] (Homo sapiens, A673, 72 h), 200 to 5000 nM; in test [4] (Homo sapiens, HCC70, 72 h), 1000 to 5000 nM; in test [5], more than 5000 nM; in test [6], more than 5000 nM.

Turning to `CCc1cnc(N[C@H]2CCCNC2)nc1-c1n[nH]c2nc(C#N)ccc12` [Compound 277, (S)-3-(5-ethyl-2-(piperidin-3-ylamino)pyrimidin-4-yl)-1H-pyrazolo[3,4-b]pyridine-6-carbonitrile], the IC50 was less than 20 nM in test [1]; 200 to 5000 nM in test [2]; 20 to 200 nM in test [3] (Homo sapiens, A673, 72 h); 100 to 1000 nM in test [4] (Homo sapiens, HCC70, 72 h); 200 to 5000 nM in test [5]; 200 to 5000 nM in test [6].

Take `O=C(c1ccc2c(-c3nc(N[C@H]4CCCNC4)ncc3C(F)(F)F)c[nH]c2c1)N1CCCC1` [Compound 278, [3-[2-[[(3S)-3-piperidyl]amino]-5-(trifluoromethyl)pyrimidin-4-yl]-1H-indol-6-yl]-Pyrrolidin-1-yl-methanone]: the IC50 in test [1] was 20 to 200 nM; in test [2], more than 5000 nM; in test [3] (Homo sapiens, A673, 72 h) it was 20 to 200 nM; in test [4] (Homo sapiens, HCC70, 72 h), 100 to 1000 nM; in test [5] it was 200 to 5000 nM; in test [6] it was 200 to 5000 nM.

Turning to `Cn1cc(-c2nc(NC3CCCNC3)ncc2C(F)(F)F)c2cccc(C#N)c21` (stereo not drawn) [Compound 279], the IC50 was 20 to 200 nM in test [1]; more than 5000 nM in test [2]; 200 to 5000 nM in test [3] (Homo sapiens, A673, 72 h); 1000 to 5000 nM in test [4] (Homo sapiens, HCC70, 72 h); more than 5000 nM in test [5]; more than 5000 nM in test [6].

For `COCn1cc(-c2nc(NC3CCCNC3)ncc2C(F)(F)F)c2ccc(C#N)nc21` (stereo not drawn) [Compound 283], the IC50 is 200 to 5000 nM in test [1]; more than 5000 nM in test [2]; 200 to 5000 nM in test [3] (Homo sapiens, A673, 72 h); 1000 to 5000 nM in test [4] (Homo sapiens, HCC70, 72 h); more than 5000 nM in test [5]; more than 5000 nM in test [6].

Regarding `CCN1CCC[C@H](Nc2ncc(C(F)(F)F)c(-c3c[nH]c4cc(C#N)ccc34)n2)C1` [Compound 284], the IC50 in test [1] is less than 20 nM; in test [2], 200 to 5000 nM; in test [3] (Homo sapiens, A673, 72 h) it was 20 to 200 nM; in test [4] (Homo sapiens, HCC70, 72 h), 100 to 1000 nM; in test [5], 200 to 5000 nM; in test [6] it was 200 to 5000 nM.

As to `C[C@H]1CCNC[C@H]1Nc1ncc(C(F)(F)F)c(-c2c[nH]c3ccccc23)n1` [Compound 285], the IC50 was 200 to 5000 nM in test [1]; more than 5000 nM in test [2]; less than 20 nM in test [3] (Homo sapiens, A673, 72 h); less than 100 nM in test [4] (Homo sapiens, HCC70, 72 h); more than 5000 nM in test [5]; more than 5000 nM in test [6].

These data come from patent publication US20240360165A1, “INHIBITORS OF CYCLIN DEPENDENT KINASE 7 (CDK7)” (Syros Pharmaceuticals, Inc., priority 2016, published 2024).
